Test [1] addresses IR-B (Homo sapiens, UniProt P06213). Particulars: published; (Kd of native hormone/Kd of derivative) × 100; cited from earlier work.
In test [2] the target is T1, IGF-1R (Homo sapiens, UniProt P08069). Particulars: cited from earlier work.
Test [3] addresses IR-A (Homo sapiens, UniProt P06213). To be noted: published; (Kd of native hormone/Kd of derivative) × 100; cited from earlier work.
Test [4] deals with SH-SY5Y cells. The experiment in a line: Protection of SH-SY5Y cells against methylglyoxal toxicity (MTT assay). The class given is cell-based. Particulars: methylglyoxal 1.5 mmol·l-1, SY5Y cells. (Tetrazolium assays rely on reduction of a dye to a coloured formazan, in cell work by metabolically active cells.)
Test [5] has as its target T1, IGF-1R. Kind of test: competition with 125I-IGF-1 on mouse fibroblasts transfected with human IGF-1R; relative to human insulin.
Where [6] appears, read: published, (Kd of native hormone/Kd of derivative) × 100.

“And” between values parts separate entries of the source, which are not always exact repeats. Equal values may be shown once. Read-outs that look alike come from different tables or passages of the source. Marks after values point to notes of the source that are not given here.

Chain of IR-A (P06213 28-1370 isoform P06213-2 limits assumed): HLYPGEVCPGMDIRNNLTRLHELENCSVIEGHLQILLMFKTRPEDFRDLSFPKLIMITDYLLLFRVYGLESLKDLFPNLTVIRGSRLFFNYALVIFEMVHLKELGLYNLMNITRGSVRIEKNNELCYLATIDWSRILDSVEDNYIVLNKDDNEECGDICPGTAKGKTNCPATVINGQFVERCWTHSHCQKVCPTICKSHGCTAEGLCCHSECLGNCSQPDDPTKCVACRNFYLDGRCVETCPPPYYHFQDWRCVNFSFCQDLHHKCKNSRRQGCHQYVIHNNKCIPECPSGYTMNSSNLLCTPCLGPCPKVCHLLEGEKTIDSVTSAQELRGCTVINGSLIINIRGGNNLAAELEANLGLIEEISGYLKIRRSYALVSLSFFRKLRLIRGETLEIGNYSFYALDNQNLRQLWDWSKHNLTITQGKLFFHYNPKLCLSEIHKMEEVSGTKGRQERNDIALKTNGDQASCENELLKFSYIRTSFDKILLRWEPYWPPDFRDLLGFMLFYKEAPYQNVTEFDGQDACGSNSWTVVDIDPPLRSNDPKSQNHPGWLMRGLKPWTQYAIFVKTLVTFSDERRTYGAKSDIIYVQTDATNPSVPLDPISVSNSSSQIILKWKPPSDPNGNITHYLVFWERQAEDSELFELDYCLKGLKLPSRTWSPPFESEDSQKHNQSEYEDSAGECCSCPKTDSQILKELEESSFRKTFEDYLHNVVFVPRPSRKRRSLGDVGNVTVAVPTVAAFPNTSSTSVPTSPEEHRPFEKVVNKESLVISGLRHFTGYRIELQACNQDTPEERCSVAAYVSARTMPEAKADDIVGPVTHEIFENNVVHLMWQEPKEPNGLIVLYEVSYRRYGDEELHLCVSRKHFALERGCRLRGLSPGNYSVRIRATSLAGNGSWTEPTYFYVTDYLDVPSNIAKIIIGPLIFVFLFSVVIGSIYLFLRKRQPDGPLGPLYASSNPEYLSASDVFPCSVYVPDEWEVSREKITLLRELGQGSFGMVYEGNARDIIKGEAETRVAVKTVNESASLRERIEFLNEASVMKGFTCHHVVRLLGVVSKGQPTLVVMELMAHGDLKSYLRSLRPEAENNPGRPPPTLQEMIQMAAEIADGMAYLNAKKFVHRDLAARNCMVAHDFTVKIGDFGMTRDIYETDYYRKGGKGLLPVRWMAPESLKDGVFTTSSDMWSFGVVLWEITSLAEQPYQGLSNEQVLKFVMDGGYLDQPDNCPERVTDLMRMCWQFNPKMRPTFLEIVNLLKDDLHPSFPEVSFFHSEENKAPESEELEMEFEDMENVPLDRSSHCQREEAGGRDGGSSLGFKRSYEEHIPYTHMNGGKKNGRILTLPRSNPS
Chain of IR-A (P06213 763-1382 limits assumed): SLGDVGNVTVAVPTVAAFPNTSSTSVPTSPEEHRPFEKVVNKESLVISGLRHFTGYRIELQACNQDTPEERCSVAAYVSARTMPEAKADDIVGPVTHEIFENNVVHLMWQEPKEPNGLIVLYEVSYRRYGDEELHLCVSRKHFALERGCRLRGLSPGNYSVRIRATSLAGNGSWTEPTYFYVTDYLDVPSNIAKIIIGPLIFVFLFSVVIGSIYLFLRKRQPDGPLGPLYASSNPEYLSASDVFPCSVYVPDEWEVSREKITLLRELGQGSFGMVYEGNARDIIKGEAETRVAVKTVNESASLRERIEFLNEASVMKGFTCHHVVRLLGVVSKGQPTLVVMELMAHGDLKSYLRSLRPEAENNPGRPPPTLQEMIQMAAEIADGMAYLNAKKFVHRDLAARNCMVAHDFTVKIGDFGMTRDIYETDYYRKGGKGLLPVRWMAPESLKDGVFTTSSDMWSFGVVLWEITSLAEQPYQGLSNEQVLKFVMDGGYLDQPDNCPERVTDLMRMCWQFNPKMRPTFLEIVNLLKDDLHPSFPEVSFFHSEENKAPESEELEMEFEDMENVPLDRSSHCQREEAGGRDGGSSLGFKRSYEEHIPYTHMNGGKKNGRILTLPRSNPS
Chain of IR-B (P06213 28-758 limits assumed): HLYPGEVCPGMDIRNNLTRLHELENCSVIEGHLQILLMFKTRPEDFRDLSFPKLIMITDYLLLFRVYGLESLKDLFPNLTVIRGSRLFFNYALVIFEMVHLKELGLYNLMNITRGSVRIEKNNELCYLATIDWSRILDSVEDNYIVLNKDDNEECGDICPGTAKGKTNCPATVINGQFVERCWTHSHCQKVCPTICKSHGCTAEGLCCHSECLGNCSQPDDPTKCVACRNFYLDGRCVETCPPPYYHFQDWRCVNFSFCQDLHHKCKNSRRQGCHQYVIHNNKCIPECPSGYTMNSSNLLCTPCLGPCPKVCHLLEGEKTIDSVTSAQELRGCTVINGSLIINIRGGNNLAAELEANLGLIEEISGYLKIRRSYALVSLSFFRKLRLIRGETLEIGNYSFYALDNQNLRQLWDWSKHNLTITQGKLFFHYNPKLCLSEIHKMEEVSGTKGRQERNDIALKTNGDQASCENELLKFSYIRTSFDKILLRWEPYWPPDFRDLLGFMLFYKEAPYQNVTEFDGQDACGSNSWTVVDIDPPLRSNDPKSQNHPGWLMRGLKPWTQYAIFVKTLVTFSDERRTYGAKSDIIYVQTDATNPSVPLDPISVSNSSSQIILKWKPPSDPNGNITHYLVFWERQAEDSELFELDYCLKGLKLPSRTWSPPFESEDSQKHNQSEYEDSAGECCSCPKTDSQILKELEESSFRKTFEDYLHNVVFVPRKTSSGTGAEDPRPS
Chain of IR-B (P06213 763-1382 limits assumed): as the sequence (P06213 763-1382 limits assumed) above
Chain of IN-ML-15 (GluB10, D-HisB24, GlyB31, TyrB32-insulin) (ligand) (chain): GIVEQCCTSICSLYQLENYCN
Chain of IN-ML-15 (GluB10, D-HisB24, GlyB31, TyrB32-insulin) (ligand) (chain): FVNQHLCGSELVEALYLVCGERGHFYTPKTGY

As to D-HisB24, GlyB31, TyrB32-insulin, in test [1], the “Relative binding affinity for IR-B (%)” value was 338%. Further, the “Relative binding affinity for IGF-1R (%)” value in test [2] (setting [6]) is 12% and 12.4%. For the same compound, in test [3], the “Relative binding affinity for IR-A (%)” value was 251%.
Turning to D-PheB24-insulin, the “Relative binding affinity for IR-A (%)” value in test [3] is recorded as 180%.
For GluB10-insulin, in test [3], the “Relative binding affinity for IR-A (%)” value was 407%.
With D-HisB24-insulin, the “Relative binding affinity for IR-B (%)” value in test [1] is 250%. For the same compound, the “Relative binding affinity for IGF-1R (%)” value in test [2] (setting [6]) is 1.0%. Besides, the “Relative binding affinity for IR-A (%)” value in test [3] is given as 280%.
With D-ProB24-insulin, the “Relative binding affinity for IR-A (%)” value in test [3] is on record as 1.3%.
Regarding AspB10-insulin, in test [2] (Converted from Schaffer data), the “Relative binding affinity for IGF-1R (%)” value is recorded as 0.2* %. In addition, the “Relative binding affinity for IR-A (%)” value in test [3] is listed as 206%.
`CC(=O)C=O` [Methylglyoxal, methylglyoxal]: in test [4], the “amount of cells grown in the wells compared with the control” value is 50-60%.
With GlyB31, TyrB32-insulin, in test [1], the “Relative binding affinity for IR-B (%)” value is given as 310%. The “Relative binding affinity for IGF-1R (%)” value in test [2] (setting [6]) is 0.27%. For the same compound, in test [3], the “Relative binding affinity for IR-A (%)” value was 162%.
As for “IN-ML-15 (GluB10, D-HisB24, GlyB31, TyrB32-insulin) (ligand)”, in test [5], the times more potent than insulin worked out at 790 times.
Turning to D-AlaB24-insulin, the “Relative binding affinity for IR-A (%)” value in test [3] is on record as 150%.

(Values after patent US20260174874A1, “INSULIN DERIVATIVES” (USTAV ORGANICKE CHEMIE A BIOCHEMIE AKADEMIE VED CR, V. V. I., priority 2022, published 2026).)
